Read-outs that look alike come from different tables or passages of the source.

Data set [1] deals with Mycosphaerella arachidis (Cercospora arachidicola). The data set can be described thus: Mycosphaerella arachidis (Cercospora arachidicola) / liquid culture (early leaf spot). The note with it: 200 ppm, liquid culture, PDB, 24° C., 4-5 days after application, read-out: control of Mycosphaerella arachidis (inhibition of growth, photometric). In kind it is cell-based.
For data set [2], the system named is Thanatephorus cucumeris (Rhizoctonia solani). Particulars: read-out: control of Thanatephorus cucumeris (inhibition of growth, photometric).
The next data set deals with Pythium ultimum. Briefly: Pythium ultimum / liquid culture (seedling damping off). It is filed as cell-based. Particulars: Globisporangium ultimum, potato dextrose broth, 24° C., 2-3 days after application, read-out: control of Pythium ultimum (inhibition of growth, photometric).
The subject of data set [3] is Phaeosphaeria nodorum (Septoria nodorum). The note with it: Parastagonospora nodorum, in Triticum aestivum, foliar, read-out: control of Phaeosphaeria nodorum (percent disease control compared to untreated).
Data set [4] has as its system Puccinia recondita f. sp. tritici. Particulars: in Triticum aestivum, foliar, read-out: control of Puccinia recondita f. sp. tritici (percent disease control compared to untreated).
The test system of the next data set is Pyrenophora teres. The note with it: in Hordeum vulgare, foliar, read-out: control of Pyrenophora teres (disease control compared to untreated).
The test system of the next data set is Alternaria solani. The data set can be described thus: Alternaria solani / tomato / leaf disc (early blight). In kind it is in vivo. Particulars: foliar, tomato leaf disks cv. Baby, inoculated 2 days after application, assessed 5-7 days after application, read-out: control of Alternaria solani (percent disease control compared to untreated). The procedure: The inoculated leaf disks were incubated at 23° C./21° C. […].44

Data set [5] has as its system Botryotinia fuckeliana (Botrytis cinerea). The data set can be described thus: Botryotinia fuckeliana (Botrytis cinerea) / liquid culture (gray mould). It is filed as cell-based. Particulars: Vogels broth, 24° C., 3-4 days after application, read-out: control of Botryotinia fuckeliana (inhibition of growth, photometric). An excerpt:
Botryotinia Fuckeliana (Botrytis cinerea)/Liquid Culture (Gray Mould): Conidia of the fungus from cryogenic storage were directly mixed into nutrient broth (Vogels broth). […].45

Data set [6] relates to Glomerella lagenarium (Colletotrichum lagenarium). The data set can be described thus: Glomerella lagenarium (Colletotrichum lagenarium) / liquid culture (anthracnose). It is filed as cell-based. Particulars: Colletotrichum orbiculare; 200 ppm, liquid culture, PDB, 24° C., 3-4 days after application; read-out: control of Glomerella lagenarium (inhibition of growth, photometric).

Data set [7] deals with Monographella nivalis (Microdochium nivale). The data set can be described thus: Monographella nivalis (Microdochium nivale) / liquid culture (foot rot cereals). It is filed as cell-based. Particulars: PDB, 24° C., 4-5 days after application, read-out: control of Monographella nivalis (inhibition of growth, photometric).
Data set [8] relates to Puccinia recondita f. sp. tritici. Particulars: in Triticum aestivum, foliar, read-out: control of Puccinia recondita f. sp. tritici (percent disease control compared to untreated). This is another data set of the same source.
The next data set has as its system Gaeumannomyces graminis. Briefly: Gaeumannomyces graminis / liquid culture (take-all of cereals). It is filed as cell-based. Particulars: 200 ppm, liquid culture, PDB, 24° C., 4-5 days after application, read-out: control of Gaeumannomyces graminis (inhibition of growth, photometric).
Data set [9] deals with Mycosphaerella graminicola (Septoria tritici). Briefly: Mycosphaerella graminicola (Septoria tritici) / liquid culture (Septoria blotch). In kind it is cell-based. The note with it: Zymoseptoria tritici; 200 ppm, liquid culture, PDB, 24° C., 4-5 days after application; read-out: control of Mycosphaerella graminicola (inhibition of growth, photometric).

Regarding `CCOc1cc(C)nc(-c2cccc(CCCO/N=C(\C)c3cccc(C)n3)n2)c1` [P.12], the inhibition at 200 ppm (in data set [1]; in data set [2]; in the data set with Pythium ultimum; in data set [5]; in [6]; in data set [7]) was at least 80% in each case. In addition, the pest or weed control at 200 ppm (in [3]; in data set [4]; in the data set with Pyrenophora teres; in the data set on Alternaria solani; in [8]) was at least 80% each time.
`CON=C(C)c1ccc(-c2cccc(CCCO/N=C(\C)c3cccc(C)n3)n2)nc1C` [P.22]: the inhibition at 200 ppm (in data set [1]; in data set [5]; in [6]; in the data set with Gaeumannomyces graminis; in [9]) was at least 80% throughout. For the same compound, the pest or weed control at 200 ppm (in [3]; in data set [4]; in the data set with Pyrenophora teres; in the data set on Alternaria solani; in data set [8]) was at least 80% each time.
Consider `CCc1cc(O)c(C)c(-c2cccc(CCCO/N=C(\C)c3cccc(C)n3)n2)n1` [P.32], for which the melting point (as a rule, the temperature, or range, at which the solid turns liquid) lay within 128 to 130 °C.
As to `C/C(=N\OCCCc1cccc(-c2cc(OC(C)C)cc(C)n2)n1)c1cccc(C)n1` [P.27], the inhibition at 200 ppm (in [1]; in data set [2]; with Pythium ultimum; in [5]; in [6]; in data set [7]) was at least 80% each time. Moreover, the inhibition (in general, the drop in the measured response relative to a control, in per cent) at 200 ppm in [9] is at least 80%. Moreover, the pest or weed control at 200 ppm (in [3]; in data set [4]; with Pyrenophora teres; in the data set on Alternaria solani; in data set [8]) was at least 80% in each case.
As for `CCOc1cc(C)nc(-c2cccc(CCCO/N=C(\C)c3cc(C)cc(C)n3)n2)c1` [P.28], the inhibition at 200 ppm (in data set [1]; in data set [2]; in the data set with Pythium ultimum; in data set [5]; in [6]; in data set [7]) was at least 80% throughout. The inhibition at 200 ppm (in the data set on Gaeumannomyces graminis; in data set [9]) was at least 80% each time. The pest or weed control at 200 ppm (in [3]; in data set [4]; in the data set on Pyrenophora teres; in [8]) was at least 80% in each case.
`C/C(=N\OCCCc1cccc(-c2cc(Cl)cc(C)n2)n1)c1cccc(C)n1` [P.16, 1-(6-methyl-pyridin-2-yl)-ethanone-O-[3-(4′-chloro-6′-methyl-[2,2′]bipyridinyl-6-yl)-propyl]-oxime]: the melting point fell in the range of 53 to 54 °C. The inhibition at 200 ppm in [1] was at least 80%. The inhibition at 200 ppm in data set [2] was at least 80%. Also, the pest or weed control at 200 ppm in data set [3] was at least 80%. In addition, in [4], the pest or weed control at 200 ppm is at least 80%. Besides, the pest or weed control at 200 ppm in the data set with Pyrenophora teres was at least 80%. In addition, in data set [5], the inhibition at 200 ppm was at least 80%. Moreover, the inhibition at 200 ppm in data set [6] is at least 80%. The pest or weed control at 200 ppm in data set [8] is at least 80%. Besides, the inhibition at 200 ppm in the data set on Gaeumannomyces graminis is at least 80%. For the same compound, the inhibition at 200 ppm in [9] was at least 80%.
Consider `C/C(=N\OCCCc1cccc(-c2cccc(C)n2)n1)c1cccc(C)n1` [P.21], for which the inhibition at 200 ppm (in data set [1]; with Pythium ultimum; in data set [5]; in data set [6]; in the data set on Gaeumannomyces graminis; in data set [9]) was at least 80% in each case. Besides, the pest or weed control at 200 ppm (in [3]; in data set [4]; in the data set on Pyrenophora teres; in the data set on Alternaria solani; in data set [8]) was at least 80% throughout.
On to `COc1cc(C)nc(-c2cccc(CCCO/N=C(\C)c3nc(C)cc(C)n3)n2)c1` [P.44], for which the inhibition at 200 ppm (in data set [1]; in [2]; in the data set with Pythium ultimum; in data set [5]; in [6]; in [7]) was at least 80% in each case. Moreover, the inhibition at 200 ppm (with Gaeumannomyces graminis; in [9]) was at least 80% each time. Also, the pest or weed control at 200 ppm (in data set [3]; in data set [4]; in the data set with Pyrenophora teres; in the data set on Alternaria solani; in data set [8]) was at least 80% in each case.
As to `COc1cc(C)nc(-c2cccc(CCCO/N=C(\C)c3cc(C)cc(C)n3)n2)c1` [P.13], the inhibition at 200 ppm (in data set [1]; with Pythium ultimum; in [5]; in [6]; in data set [7]; in the data set with Gaeumannomyces graminis) was at least 80% in each case. For the same compound, the inhibition at 200 ppm in [9] is at least 80%. The pest or weed control at 200 ppm (in data set [3]; in [4]; in the data set on Pyrenophora teres; in the data set with Alternaria solani; in data set [8]) was at least 80% in each case.
As to `C#CCOc1cc(C)nc(-c2cccc(CCCO/N=C(\C)c3cc(C)cc(C)n3)n2)c1` [P.29], the inhibition at 200 ppm (in [1]; in data set [2]; in data set [5]; in [6]; in [7]; with Gaeumannomyces graminis) was at least 80% in each case. The inhibition at 200 ppm in [9] is at least 80%. The pest or weed control at 200 ppm (in [3]; in data set [4]; in the data set on Pyrenophora teres; in the data set on Alternaria solani; in data set [8]) was at least 80% in each case.
Regarding `COc1cc(C)nc(-c2ccc(OC)c(CCCO/N=C(\C)c3cccc(C)n3)n2)c1` [P.43], the inhibition at 200 ppm (in data set [1]; in [2]; with Pythium ultimum; in [5]; in data set [6]; in [7]) was at least 80% in each case. In addition, the inhibition at 200 ppm (with Gaeumannomyces graminis; in data set [9]) was at least 80% each time. The pest or weed control at 200 ppm (in data set [3]; in data set [4]; in the data set with Pyrenophora teres; in data set [8]) was at least 80% each time.
Regarding `CCc1ccc(C)c(-c2cccc(CCCO/N=C(\C)c3cccc(C)n3)n2)n1` [P.42], the inhibition at 200 ppm (in data set [1]; in data set [2]; in data set [5]; in data set [6]; in data set [7]; with Gaeumannomyces graminis) was at least 80% each time. The inhibition at 200 ppm in [9] is at least 80%. Moreover, the pest or weed control at 200 ppm (in data set [3]; in data set [4]; in the data set with Pyrenophora teres; in the data set with Alternaria solani; in [8]) was at least 80% each time.
With `C=CCOc1cc(C)nc(-c2cccc(CCCO/N=C(\C)c3cccc(C)n3)n2)c1` [P.25], the inhibition at 200 ppm (in data set [1]; in data set [2]; in the data set with Pythium ultimum; in data set [5]; in data set [6]; in data set [7]) was at least 80% in each case. Besides, the inhibition at 200 ppm (in the data set with Gaeumannomyces graminis; in [9]) was at least 80% each time. Besides, the pest or weed control at 200 ppm (in data set [3]; in data set [4]; with Pyrenophora teres; in data set [8]) was at least 80% each time.

(Values after US20140045873A1, “NOVEL MICROBIOCIDES” (SYNGENTA PARTICIPATIONS AG, priority 2010, published 2014).)
